Compound: Cn1cnc2c(F)c(Nc3ccc(Br)cc3Cl)c(C(=O)NOCCO)cc21 [Selumetinib] + CS(=O)(=O)N1CCN(Cc2cc3nc(-c4cccc5[nH]ncc45)nc(N4CCOCC4)c3s2)CC1 [Pictilisib] (partner 1 µM)
Assay: relative viability (nuclei count vs DMSO), 5 days (fraction); higher = more cells survive
Details: first compound 0.02 µM
In short: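 For relative viability, nuclei counts in treated wells were divided by those in vehicle wells. Lung cancer cell lines had been pin-tool dosed in 1536-well plates the day after seeding and cultured for 5 days, then fixed and stained in one step (final 0.05% Triton X-100, 1% formaldehyde, 1 ug/ml Hoechst) and imaged at 4×. Doses were one drug alone or a fixed anchor-drug dose plus five library-drug doses (not always all listed) in √10 steps, and values are duplicate-plate medians.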

Cell Line	relative viability
A549	0.441
NCI-H1299	0.673
NCI-H520	0.293
NCI-H661	0.496
CAL-12T	0.415
NCI-H1703	0.231
NCI-H1563	0.616
NCI-H1650	0.53
NCI-H2009	0.614
SW 1573	0.366
SK-LU-1	0.618

Same assay, conditions: first compound 0.06325 µM

Cell Line	relative viability
PC-14	0.551
EBC-1	0.172
NCI-H2023	0.186
Calu-6	0.644
NCI-H2228	0.283
SK-MES-1	0.266
COR-L23	0.699
COR-L 105	0.312
IA-LM	0.143
A549	0.377
NCI-H1299	0.51
NCI-H520	0.24
NCI-H661	0.39
CAL-12T	0.394
NCI-H1703	0.193
NCI-H1563	0.587
NCI-H1650	0.44
NCI-H2009	0.355
SW 1573	0.427
SK-LU-1	0.493

Same assay, conditions: first compound 0.2 µM

Cell Line	relative viability
PC-14	0.548
EBC-1	0.182
NCI-H2023	0.198
Calu-6	0.467
NCI-H2228	0.354
SK-MES-1	0.196
COR-L23	0.784
COR-L 105	0.338
IA-LM	0.119
A549	0.256
NCI-H1299	0.389
NCI-H520	0.31
NCI-H661	0.347
CAL-12T	0.408
NCI-H1703	0.229
NCI-H1563	0.753
NCI-H1650	0.524
NCI-H2009	0.266
SW 1573	0.342
SK-LU-1	0.459

Same assay, conditions: first compound 0.6325 µM

Cell Line	relative viability
PC-14	0.519
EBC-1	0.173
NCI-H2023	0.223
Calu-6	0.335
NCI-H2228	0.314
SK-MES-1	0.233
COR-L23	0.713
COR-L 105	0.347
IA-LM	0.0815
A549	0.238
NCI-H1299	0.359
NCI-H520	0.292
NCI-H661	0.577
CAL-12T	0.395
NCI-H1703	0.283
NCI-H1563	0.638
NCI-H1650	0.525
NCI-H2009	0.221
SW 1573	0.386
SK-LU-1	0.258
